According to patent publication US20140128352A1, “COMPOUNDS AND METHODS FOR MODULATING MITOCHONDRIAL METABOLISM AND REACTIVE OXYGEN SPECIES PRODUCTION” (Buck Institute for Research on Aging, priority 2012, published 2014):
Read-outs that look alike come from different tables or passages of the source.

Tests used:
[1] = test system: ubiquinone binding site of complex I (IQ); assay: High-throughput screen: ROS production from ubiquinone binding site of complex I (IQ), isolated skeletal muscle mitochondria; type: biochemical, rat; conditions: for IQ: percent change in ROS from DMSO controls
[2] = molecular target: T1, flavin binding site of complex I (IF) (Rattus norvegicus, UniProt Q5XIH3); assay: High-throughput screen: ROS production from flavin binding site of complex I (IF); type: biochemical
T1 construct: freshly isolated muscle mitochondria were assayed; from tissue; host or cells: rat skeletal muscle mitochondria (Wistar, Harlan Laboratories)

[3] = molecular target: T2, outer ubiquinone binding site of complex III (IIIQO) (Rattus norvegicus, UniProt P00159+P20788); assay: High-throughput screen: ROS production from outer ubiquinone binding site of complex III (IIIQO); type: biochemical
T2 construct: freshly isolated muscle mitochondria were assayed; from tissue; host or cells: rat skeletal muscle mitochondria (Wistar, Harlan Laboratories)

[4] = molecular target: T3, succinate dehydrogenase/complex II (SDH) (Rattus norvegicus, UniProt P21913+Q641Z9+Q6PCT8+Q920L2); assay: High-throughput screen: ROS production from succinate dehydrogenase/complex II (SDH); type: biochemical; conditions: percent change in ROS from DMSO controls
T3 construct: freshly isolated muscle mitochondria were assayed; from tissue; host or cells: rat skeletal muscle mitochondria (Wistar, Harlan Laboratories)
Procedure: Skeletal muscle mitochondria were isolated from 5-8 week old female Wistar rats (Harlan Laboratories). Minced muscle was homogenized in buffer containing bacterial protease Type VIII prior to differential centrifugation to separate mitochondria from other tissue components. Unless otherwise stated, freshly isolated muscle mitochondria were assayed in buffer containing 120 mM KCl, 5 mM HEPES, 1 mM EGTA, 0.3% (w/v) bovine serum albumin. Where indicated, CaCl2 was added to yield a final free concentration of 250 nM calcium at pH 7.0 at 37° C.
Just prior to use, plates were brought to room temperature and diluted 300-fold with standard buffer (13.3X=33.3 μM). To monitor the performance of each assay throughout screening and to provide intra-plate normalization reference points, DMSO negative controls and known mitochondrial inhibitor positive controls were included on each Master compound plate.
Total amounts of superoxide and H2O2 production were determined fluorometrically as H2O2, without distinguishing between them, in the presence of exogenous superoxide dismutase (25 units/mL final), horseradish peroxidase (1 unit/mL final), and Amplex UltraRed (25 μM final) as described (Affourtit, C. et al. (2012) Measurement of proton leak and electron leak in isolated mitochondria. Methods Mol. Biol. 810: 165-82). Just prior to use, a bulk 3.3X solution was made in standard buffer and distributed into a 2 mL deep well 96-well transfer plate.
To assess the effects of a compound on ROS production from succinate dehydrogenase/complex II (SDH), Start Solution containing 15 μM palmitoyl carnitine, 2.5 μM antimycin A and 2 μM myxothiazol was distributed into standard 96-well transfer plates. A Biomek FX workstation was programmed to dispense solutions into black 96-well assay plates. Solutions were dispensed to all assay plates in the following order: ROS Detection solution described in Example 3, Mitochondria solution described in Example 1 to a final concentration of 0.3 mg/ml, and Compound dilutions described in Example 2. Duplicate assay plates were made and each was initiated by the addition of 3.3X Start solution containing 15 μM palmitoyl carnitine, 2.5 μM antimycin A and 2 μM myxothiazol. Plates were incubated in the dark at room temperature for 30-40 minutes before acquiring endpoint fluorescence using a Victor 3V plate reader (Perkin Elmer) equipped with 550/590 nm excitation/emission filters.
The fluorescence values in each well were scaled as the percent change from the intra-plate DMSO controls with the appropriate inhibitor positive controls defined as −100%. Following initial scaling, intra-plate normalized values were subjected to Tukey's two-way median polish to remove row and column dependent positional effects (Malo et al., 2006).

[5] = molecular target: T4, glycerol-3-phosphate dehydrogenase (GPDH) (Rattus norvegicus, UniProt P35571); assay: High-throughput screen: ROS production from glycerol-3-phosphate dehydrogenase (GPDH); type: biochemical; design: inhibition: dose or concentration left out as unconfirmed; conditions: for inhibition / GPDH: percent change in ROS from DMSO controls; for inhibition at 2.5 µM: Table 6, 25 mM glycerol phosphate, rotenone, antimycin A, malonate, myxothiazol, compounds 2.5 μM, scaled to IQ positive controls, read-out: % Reduction in ROS Production (GPDH)
T4 construct: The activity of GPDH in intact mitochondria (0.3 mg/mL) was measured; from tissue; host or cells: rat skeletal muscle mitochondria (Wistar, Harlan Laboratories)
T4 sequence (P35571 43-727): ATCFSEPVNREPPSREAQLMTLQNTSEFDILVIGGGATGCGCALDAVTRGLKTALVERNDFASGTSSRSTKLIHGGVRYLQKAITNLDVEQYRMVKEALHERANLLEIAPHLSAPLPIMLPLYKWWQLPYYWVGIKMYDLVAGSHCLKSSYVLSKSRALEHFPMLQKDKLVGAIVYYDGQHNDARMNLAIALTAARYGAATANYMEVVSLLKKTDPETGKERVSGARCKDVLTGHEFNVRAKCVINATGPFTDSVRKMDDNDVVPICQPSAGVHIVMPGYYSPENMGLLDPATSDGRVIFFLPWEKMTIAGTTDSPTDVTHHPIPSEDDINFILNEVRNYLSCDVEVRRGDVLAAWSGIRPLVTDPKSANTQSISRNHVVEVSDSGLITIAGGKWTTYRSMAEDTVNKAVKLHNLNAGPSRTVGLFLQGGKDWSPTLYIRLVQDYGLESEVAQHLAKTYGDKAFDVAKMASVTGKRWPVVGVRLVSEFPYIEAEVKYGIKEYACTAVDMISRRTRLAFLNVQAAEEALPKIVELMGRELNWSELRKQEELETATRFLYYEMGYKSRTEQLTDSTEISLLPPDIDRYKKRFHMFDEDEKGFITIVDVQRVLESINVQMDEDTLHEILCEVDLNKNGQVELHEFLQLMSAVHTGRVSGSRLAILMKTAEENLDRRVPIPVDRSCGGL

[6] = test system: mitochondrial membrane potential (ΔΨm); assay: Membrane potential (ΔΨm) counterscreen with TMRM; conditions: malate, nigericin
site IIIQo = molecular target: T5, site IIIQo (Rattus norvegicus, UniProt P00159+P20788); assay: Retest of IIIQo ROS production (expanded microplate panel); type: biochemical
T5 construct: freshly isolated muscle mitochondria were assayed; from tissue; host or cells: rat skeletal muscle mitochondria (Wistar, Harlan Laboratories)
Procedure: Compounds identified as site-selective hits as well as structural analogs were re-sourced from ChemBridge and dissolved in DMSO as 80 mM stocks. Master Titration Plates were prepared manually by serially diluting 80 mM compound stocks between 0.08 and 80 mM on 96-well microplates. Four compounds were titrated in duplicate on each plate. Additional DMSO controls were interspersed across these plates to serve as local normalization controls during analysis since two-way median polishing was not appropriate. Just prior to use, compounds were diluted 100-fold with standard buffer (10X). The same known inhibitor positive controls were included on each plate as during high-throughput screening. The five core ROS assays and single ΔΨm assay were carried out as in the initial high-throughput screen. In addition, several assays were included to help validate the specificity of the compounds for a given site of production. […] The use of different substrates was designed to reveal compounds that disrupt mitochondrial function in a substrate specific manner. […] Most frequently, these changes involved the use of different substrates to supply electrons from an alternative entry point in the chain. If a site of ROS production is being targeted selectively by a compound, then in many cases the supply of electrons should not influence the effectiveness of this compound at suppressing ROS production. […] The fluorescence values in each well were scaled in relation to the intra-plate DMSO and known inhibitor controls as in the high-throughput screen except that median values for local interspersed DMSO wells (3-6 wells) were used rather than just the 8 DMSO wells in columns 1 and 12. This normalization was applied in place of the two-way median polish used during high-throughput screening to minimize row and column effects. […] At this stage, strong candidates were not necessarily excluded from further testing if subtle off-target effects were observed (e.g. loss of specificity or signs of general inhibition at the highest concentrations). Rather, these candidates were often pursued for more detailed mechanistic studies with the expectation that subsequent structure activity analysis would provide insight into which structurally related compounds would provide the optimal specificity for a given site of production.

[7] = Table 3, 5 mM glutamate, 5 mM malate, 4 μM rotenone, compounds 2.5 μM, percent change from DMSO, positive control −100%, read-out: % Reduction in ROS production (IF)
[8] = Table 7, percent change in ROS from DMSO controls, read-out: IF
[9] = Table 8, percent change in ROS from DMSO controls
[10] = Table 9, percent change in ROS from DMSO controls
[11] = Table 7, percent change in ROS from DMSO controls, read-out: IIIQO
[12] = Table 9, percent change in ROS from DMSO controls, read-out: IIIQo
[13] = Table 4, 5 mM succinate, 4 μM rotenone, 2.5 μM antimycin A, compounds 2.5 μM, percent change from DMSO, read-out: % Reduction in ROS production (IIIQO)
[14] = Table 7, percent change in ROS from DMSO controls

T1 sequence (Q5XIH3 21-464 limits assumed, one chain of several): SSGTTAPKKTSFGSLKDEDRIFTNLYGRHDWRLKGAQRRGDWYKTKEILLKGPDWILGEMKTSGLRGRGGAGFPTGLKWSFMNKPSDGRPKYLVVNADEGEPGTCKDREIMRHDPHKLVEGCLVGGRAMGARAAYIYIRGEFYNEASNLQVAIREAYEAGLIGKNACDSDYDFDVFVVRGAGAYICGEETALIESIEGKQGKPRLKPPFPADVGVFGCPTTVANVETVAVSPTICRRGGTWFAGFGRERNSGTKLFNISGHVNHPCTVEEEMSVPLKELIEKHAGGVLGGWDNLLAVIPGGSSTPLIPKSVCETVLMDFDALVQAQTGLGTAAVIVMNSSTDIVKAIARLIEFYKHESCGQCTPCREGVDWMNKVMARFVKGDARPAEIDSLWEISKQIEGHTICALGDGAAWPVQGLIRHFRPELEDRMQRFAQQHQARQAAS
T3 sequence (Q920L2 35-656): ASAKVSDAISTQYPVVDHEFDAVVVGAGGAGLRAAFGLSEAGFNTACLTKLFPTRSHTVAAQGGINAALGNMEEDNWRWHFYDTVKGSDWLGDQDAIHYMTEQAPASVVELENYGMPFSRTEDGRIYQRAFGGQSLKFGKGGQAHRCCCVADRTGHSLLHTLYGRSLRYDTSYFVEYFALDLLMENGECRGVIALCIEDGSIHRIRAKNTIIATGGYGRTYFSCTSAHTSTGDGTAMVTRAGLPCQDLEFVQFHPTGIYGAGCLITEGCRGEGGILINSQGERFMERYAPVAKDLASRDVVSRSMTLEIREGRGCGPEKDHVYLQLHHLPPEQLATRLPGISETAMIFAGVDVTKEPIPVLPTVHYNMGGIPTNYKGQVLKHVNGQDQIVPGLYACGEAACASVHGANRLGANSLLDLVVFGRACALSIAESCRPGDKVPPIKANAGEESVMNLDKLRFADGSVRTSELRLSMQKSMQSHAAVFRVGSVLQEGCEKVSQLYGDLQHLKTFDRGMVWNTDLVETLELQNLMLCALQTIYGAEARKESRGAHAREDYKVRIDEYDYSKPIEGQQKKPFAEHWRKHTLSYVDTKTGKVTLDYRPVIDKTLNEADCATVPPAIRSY
T3 sequence (P21913 31-282): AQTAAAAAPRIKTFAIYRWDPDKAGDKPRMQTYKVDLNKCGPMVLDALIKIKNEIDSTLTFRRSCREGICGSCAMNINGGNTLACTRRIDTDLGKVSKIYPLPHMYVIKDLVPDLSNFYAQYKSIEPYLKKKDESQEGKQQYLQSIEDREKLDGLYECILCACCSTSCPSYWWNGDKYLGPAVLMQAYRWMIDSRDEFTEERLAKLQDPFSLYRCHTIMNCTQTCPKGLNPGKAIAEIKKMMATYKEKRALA
T3 sequence (Q641Z9 30-169 limits assumed): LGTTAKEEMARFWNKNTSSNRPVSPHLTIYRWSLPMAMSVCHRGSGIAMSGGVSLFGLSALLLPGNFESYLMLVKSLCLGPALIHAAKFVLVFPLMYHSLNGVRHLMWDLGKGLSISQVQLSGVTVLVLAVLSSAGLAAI
T3 sequence (Q6PCT8 57-159): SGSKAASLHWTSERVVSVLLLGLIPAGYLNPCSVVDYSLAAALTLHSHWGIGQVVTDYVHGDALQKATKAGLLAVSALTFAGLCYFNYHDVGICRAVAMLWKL

SMILES | IQ ([1]; Table 7) | IQ ([1]; Table 8) | IQ ([1]; Table 9) | inhibition at 2.5 µM [2, 7] [%] | inhibition at 2.5 µM [2, 8] [%] | IF [2, 9] | IF [2, 10] | inhibition at 2.5 µM [3, 11] [%] | IIIQO [3, 9] | inhibition at 2.5 µM [3, 12] [%] | inhibition at 2.5 µM ([4]; Table 7) [%] | SDH ([4]; Table 8) | SDH ([4]; Table 9) | inhibition ([5]; Table 7) [%] | GPDH ([5]; Table 8) | GPDH ([5]; Table 9) | ΔΨm ([6]; Table 8, glutamate) | ΔΨm ([6]; Table 9, glutamate) | effect on IIIQo ROS (site IIIQo) | other results
COc1cc(CN(CCN(C)C)Cc2ccccc2)cc(OC)c1 [Compound 31] | −1.4 | −1.4 | −1.4 | 7.6 | 7.6 | −7.6 | −7.6 | 1.4 | −1.4 | 1.4 | 6 | −6.0 | −6.0 | -0.5 | 0.5 | 0.5 | 0.3 | 0.3 | – | –
O=C(O)CCC(=O)Nc1ccc(-c2nc3cc4ccccc4cc3[nH]2)cc1 [Compound 61] | −17.1 | – | – | – | 4.8 | – | – | 2.4 | – | – | 4.5 | – | – | 3.8 | – | – | – | – | – | inhibition at 2.5 µM [5]: 48.3%
O=C(O)CSc1cccc(C(=O)Nc2ccc(Br)cc2)c1 [Compound 47] | −0.1 | −0.1 | −0.1 | – | 0.5 | −0.5 | −0.5 | 0 | 0.0 | 0 | -1.3 | 1.3 | 1.3 | 14.1 | −14.1 | −14.1 | 0.0 | 0.0 | off-target effect on site IIIQo ROS | inhibition at 2.5 µM [5]: 14.1%
O=C(O)C1CCCCC1C(=O)NC1CCCCC1 (centres unmarked) [Compound 19] | 0.0 | 0.0 | 0.0 | 25.6 | 25.6 | −25.6 | −25.6 | -1.2 | 1.2 | -1.2 | – | – | – | 1 | −1.0 | −1.0 | −1.4 | −1.4 | unaffected until the highest concentration tested (80 μM) | –
CC1=CC(C)(C)N(Cc2ccc([N+](=O)[O-])cc2)c2ccccc21 [Compound 37] | 0.3 | 0.3 | 0.3 | – | -0.6 | 0.6 | 0.6 | 32.1 | −32.1 | 32.1 | -1.2 | 1.2 | 1.2 | 0.6 | −0.6 | −0.6 | 1.5 | 1.5 | lowers ROS from site IIIQo independent of substrate concentration | inhibition at 2.5 µM [3, 13]: 32.1%
O=[N+]([O-])c1ccc(Oc2ccc(S(=O)(=O)NC3CCCCC3)cc2)cc1 [Compound 4] | −47.9 | −47.9 | −47.9 | – | – | 3.1 | 3.1 | – | −0.3 | – | – | 0.8 | 0.8 | – | 2.8 | 2.8 | −0.9 | −0.9 | – | % Reduction in ROS production (IQ) ([1]; Table 2, 5 mM succinate, compounds 2.5 μM, percent change from DMSO, positive control −100%): −47.9%; IF [2, 14]: 3.1; IIIQO [3, 14]: −0.3; IIIQO [3, 10]: −0.3; SDH ([4]; Table 7): 0.8; GPDH ([5]; Table 7): 2.8
Cc1ccc(C)c(CN(CCCN(C)C)CCCN(C)C)c1 [Compound 32] | −0.6 | −0.6 | −0.6 | 28.8 | 28.8 | −28.8 | −28.8 | -2.5 | 2.5 | -2.5 | 6.8 | −6.8 | −6.8 | -0.2 | 0.2 | 0.2 | −0.2 | −0.2 | – | –
COc1ccc(Cl)cc1N(Cc1ccccc1)Cc1ccccc1 [Compound 34] | 4.0 | 4.0 | 4.0 | – | -5.6 | 5.6 | 5.6 | 49.4 | −49.4 | 49.4 | -3.9 | 3.9 | 3.9 | 4 | −4.0 | −4.0 | 3.4 | 3.4 | selectively lowers ROS production from site IIIQo independent of substrate concentration | inhibition at 2.5 µM [3, 13]: 49.4%; inhibition at 8 µM (site IIIQo; 8 μM, independent of substrate concentration): 60%
